Data from the supplement of paper PMC10627819.

Assays:
Experiment in all cases: fitness (endpoint OD595 vs no drug) (fraction); higher = more growth
[1] = tested on: B. subtilis 168
In short: (§1)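 Fitness was measured as bacterial growth in 384-well plates inoculated at OD595 0.01 (30 µl, or 55 µl for S. pneumoniae). Media were TSB, LB Lennox or CY, at 37 °C. OD595 was read every 30 min for 14 h and background-subtracted against the first reading. Fitness is OD595 at the transition into stationary phase divided by the robust mean of no-drug control wells, capped at 1.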

[2] = tested on: S. pneumoniae D39V
In short: as §1

[3] = tested on: S. aureus Newman
In short: as §1
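Also: OD595 on entry to stationary phase over no-drug wells; at most 1.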

Compound: CN(C)[C@@H]1C(O)=C(C(N)=O)C(=O)[C@@]2(O)C(O)=C3C(=O)c4c(O)ccc(Cl)c4[C@@](C)(O)[C@H]3C[C@@H]12 [Chlortetracycline] + C[C@H]1c2cccc(O)c2C(=O)C2=C(O)[C@]3(O)C(=O)C(C(N)=O)=C(O)[C@@H](N(C)C)[C@@H]3[C@@H](O)[C@@H]21 [Doxycycline]
- fitness ([1]; first compound 0.0475 µg/mL, partner 0.02 µg/mL): 0.858
- fitness ([1]; first compound 0.0475 µg/mL, partner 0.04 µg/mL): 0.658
- fitness ([1]; first compound 0.095 µg/mL, partner 0.02 µg/mL): 0.735
- fitness ([1]; first compound 0.095 µg/mL, partner 0.04 µg/mL): 0.553
- fitness ([1]; first compound 0.19 µg/mL, partner 0.08 µg/mL): 0.0672
- fitness ([2]; first compound 0.012 µg/mL, partner 0.003875 µg/mL, one replicate): 0.909
- fitness ([2]; first compound 0.012 µg/mL, partner 0.00775 µg/mL, one replicate): 0.91
- fitness ([2]; first compound 0.012 µg/mL, partner 0.0155 µg/mL): 0.921
- fitness ([2]; first compound 0.012 µg/mL, partner 0.031 µg/mL, one replicate): 0.8
- fitness ([2]; first compound 0.012 µg/mL, partner 0.062 µg/mL, one replicate): 0.707
- fitness ([2]; first compound 0.024 µg/mL, partner 0.003875 µg/mL, one replicate): 0.834
- fitness ([2]; first compound 0.024 µg/mL, partner 0.00775 µg/mL, one replicate): 0.808
- fitness ([2]; first compound 0.024 µg/mL, partner 0.0155 µg/mL): 0.88
- fitness ([2]; first compound 0.024 µg/mL, partner 0.031 µg/mL, one replicate): 0.821
- fitness ([2]; first compound 0.024 µg/mL, partner 0.062 µg/mL, one replicate): 0.774
- fitness ([2]; first compound 0.048 µg/mL, partner 0.003875 µg/mL, one replicate): 0.774
- fitness ([2]; first compound 0.048 µg/mL, partner 0.00775 µg/mL, one replicate): 0.809
- fitness ([2]; first compound 0.048 µg/mL, partner 0.0155 µg/mL): 0.803
- fitness ([2]; first compound 0.048 µg/mL, partner 0.031 µg/mL, one replicate): 0.745
- fitness ([2]; first compound 0.048 µg/mL, partner 0.062 µg/mL, one replicate): 0.614
- fitness ([2]; first compound 0.375 µg/mL, partner 0.0155 µg/mL): 0.0318
- fitness ([2]; first compound 0.375 µg/mL, partner 0.031 µg/mL): 0.0187
- fitness ([2]; first compound 0.375 µg/mL, partner 0.062 µg/mL): 0.0418
- fitness ([2]; first compound 0.75 µg/mL, partner 0.0155 µg/mL): 0.0248
- fitness ([2]; first compound 0.75 µg/mL, partner 0.031 µg/mL): 0.0352
- fitness ([2]; first compound 0.75 µg/mL, partner 0.062 µg/mL): 0.0311
- fitness ([2]; first compound 1.5 µg/mL, partner 0.0155 µg/mL): 0.0258
- fitness ([2]; first compound 1.5 µg/mL, partner 0.031 µg/mL): 0.067
- fitness ([2]; first compound 1.5 µg/mL, partner 0.062 µg/mL): 0.047

Compound: CN(C)[C@@H]1C(O)=C(C(N)=O)C(=O)[C@@]2(O)C(O)=C3C(=O)c4c(O)ccc(Cl)c4[C@@](C)(O)[C@H]3C[C@@H]12 [Chlortetracycline] + CC(C1CCC(C(O1)OC2C(CC(C(C2O)OC3C(C(C(CO3)(C)O)NC)O)N)N)N)NC [Gentamicin]
- fitness ([1]; first compound 0.0475 µg/mL, partner 0.0625 µg/mL, main component drawn): 0.917
- fitness ([1]; first compound 0.095 µg/mL, partner 0.0625 µg/mL, main component drawn): 0.778
- fitness ([1]; first compound 0.19 µg/mL, partner 0.25 µg/mL, main component drawn): 0.0795
- fitness ([2]; first compound 0.012 µg/mL, partner 2 µg/mL, main component drawn): 0.8
- fitness ([2]; first compound 0.012 µg/mL, partner 4 µg/mL, main component drawn): 0.752
- fitness ([2]; first compound 0.012 µg/mL, partner 8 µg/mL, main component drawn): 0.706
- fitness ([2]; first compound 0.024 µg/mL, partner 2 µg/mL, main component drawn): 0.393
- fitness ([2]; first compound 0.024 µg/mL, partner 4 µg/mL, main component drawn): 0.392
- fitness ([2]; first compound 0.024 µg/mL, partner 8 µg/mL, main component drawn): 0.389
- fitness ([2]; first compound 0.048 µg/mL, partner 2 µg/mL, main component drawn): 0.255
- fitness ([2]; first compound 0.048 µg/mL, partner 4 µg/mL, main component drawn): 0.184
- fitness ([2]; first compound 0.048 µg/mL, partner 8 µg/mL, main component drawn): 0.187
- fitness ([2]; first compound 0.375 µg/mL, partner 2 µg/mL, main component drawn): 0.0667
- fitness ([2]; first compound 0.375 µg/mL, partner 4 µg/mL, main component drawn): 0.0598
- fitness ([2]; first compound 0.375 µg/mL, partner 8 µg/mL, main component drawn): 0.0694
- fitness ([2]; first compound 0.75 µg/mL, partner 2 µg/mL, main component drawn): 0.0603
- fitness ([2]; first compound 0.75 µg/mL, partner 4 µg/mL, main component drawn): 0.0825
- fitness ([2]; first compound 0.75 µg/mL, partner 8 µg/mL, main component drawn): 0.0967
- fitness ([2]; first compound 1.5 µg/mL, partner 2 µg/mL, main component drawn): 0.0704
- fitness ([2]; first compound 1.5 µg/mL, partner 4 µg/mL, main component drawn): 0.0878
- fitness ([2]; first compound 1.5 µg/mL, partner 8 µg/mL, main component drawn): 0.0614

Compound: CC1(C)S[C@@H]2[C@H](NC(=O)Cc3ccccc3)C(=O)N2[C@H]1C(=O)O [Penicillin G] + Cn1nnc(-c2ccc(-c3ccc(N4C[C@H](CO)OC4=O)cc3F)cn2)n1 [Tedizolid]
- fitness ([3]; first compound 0.0195 µg/mL, partner 0.0625 µg/mL): 0.864
- fitness ([3]; first compound 0.0195 µg/mL, partner 0.125 µg/mL): 0.803
- fitness ([3]; first compound 0.0195 µg/mL, partner 0.25 µg/mL): 0.405
- fitness ([3]; first compound 0.039 µg/mL, partner 0.0625 µg/mL): 0.861
- fitness ([3]; first compound 0.039 µg/mL, partner 0.25 µg/mL): 0.339
- fitness ([3]; first compound 0.078 µg/mL, partner 0.0625 µg/mL): 0.849
- fitness ([3]; first compound 0.078 µg/mL, partner 0.125 µg/mL): 0.719
- fitness ([3]; first compound 0.078 µg/mL, partner 0.25 µg/mL): 0.305

Compound: CN(C)[C@@H]1C(O)=C(C(N)=O)C(=O)[C@@]2(O)C(O)=C3C(=O)c4c(O)ccc(Cl)c4[C@@](C)(O)[C@H]3C[C@@H]12 [Chlortetracycline] + CN(C)C(=O)C(CCN1CCC(O)(c2ccc(Cl)cc2)CC1)(c1ccccc1)c1ccccc1 [Loperamide]
- fitness ([1]; first compound 0.0475 µg/mL, partner 50 µg/mL): 0.0353
- fitness ([1]; first compound 0.0475 µg/mL, partner 100 µg/mL): 0.0088
- fitness ([1]; first compound 0.095 µg/mL, partner 25 µg/mL): 0.0158
- fitness ([1]; first compound 0.095 µg/mL, partner 50 µg/mL): 0.0367
- fitness ([1]; first compound 0.095 µg/mL, partner 100 µg/mL): 0.0243
- fitness ([1]; first compound 0.19 µg/mL, partner 25 µg/mL): 0.0386
- fitness ([1]; first compound 0.19 µg/mL, partner 50 µg/mL): 0.05
- fitness ([1]; first compound 0.19 µg/mL, partner 100 µg/mL): 0.0328
- fitness ([2]; first compound 0.012 µg/mL, partner 17.14 µg/mL): 0.967
- fitness ([2]; first compound 0.012 µg/mL, partner 34.28 µg/mL): 0.899
- fitness ([2]; first compound 0.012 µg/mL, partner 68.57 µg/mL, one replicate): 0.908
- fitness ([2]; first compound 0.024 µg/mL, partner 17.14 µg/mL): 0.926
- fitness ([2]; first compound 0.024 µg/mL, partner 34.28 µg/mL): 0.909
- fitness ([2]; first compound 0.024 µg/mL, partner 68.57 µg/mL, one replicate): 0.92
- fitness ([2]; first compound 0.048 µg/mL, partner 17.14 µg/mL): 0.829
- fitness ([2]; first compound 0.048 µg/mL, partner 34.28 µg/mL): 0.844
- fitness ([2]; first compound 0.048 µg/mL, partner 68.57 µg/mL, one replicate): 0.8
- fitness ([2]; first compound 0.375 µg/mL, partner 20 µg/mL): 0.0446
- fitness ([2]; first compound 0.375 µg/mL, partner 40 µg/mL): 0.0664
- fitness ([2]; first compound 0.375 µg/mL, partner 80 µg/mL): 0.065
- fitness ([2]; first compound 0.75 µg/mL, partner 20 µg/mL): 0.0563
- fitness ([2]; first compound 0.75 µg/mL, partner 40 µg/mL): 0.0762
- fitness ([2]; first compound 0.75 µg/mL, partner 80 µg/mL): 0.0821
- fitness ([2]; first compound 1.5 µg/mL, partner 20 µg/mL): 0.04
- fitness ([2]; first compound 1.5 µg/mL, partner 40 µg/mL): 0.0491
- fitness ([2]; first compound 1.5 µg/mL, partner 80 µg/mL): 0.0392
